Results taken from publication PMC6843786, “Temporin-SHa and Its Analogs as Potential Candidates for the Treatment of Helicobacter pylori” (Biomolecules, 2019).
Non-standard residues stand in square brackets, D forms with d. Residues, ends and D or L forms follow the SMILES beside them.

Key:
human gastric explants [1] = experiment: Ex vivo toxicity assay, LDH release from human gastric explants; format: cell-based; conditions: peptides 100 µM, CTAB 300 µM, % of total release
Protocol: To further evaluate the innocuity of the peptides, ex vivo experiments were performed using human explants as previously described. Briefly, human gastric tissue samples were obtained from patients undergoing surgery at the Hospital Laveran (Marseille, France), unit of gastrointestinal surgery according to a collaborative clinical transfer project. The procedures were approved by the French ethic committee (CODECOH n° DC-2019-3402). All patients agreed for the use of their tissues for research purposes. Samples were taken from healthy patients during sleeve gastrectomy from macroscopically unaffected area as identified by the surgeons. After resection, the specimens were placed in ice-cold oxygenated sterile DMEM solution containing 1% streptomycin/penicillin solution and 50 μg/mL gentamycin and were directly transferred to the laboratory within 15 min on ice. Gastric tissues were extensively washed and maintained in ice-cold culture media containing 1% streptomycin/penicillin solution and 50 μg/mL gentamycin. Tissues were cleaned from vascular vessels and conjunctive tissue using forceps under binocular microscope. Gastric explants (wet weight of 20–30 mg) were then isolated from the cleaned resections using surgical punch (diameter of 0.5 cm^2). […] Finally, the explants were washed three times with culture media without antibiotics and transferred into 24-well plates before being incubated in RPMI media without fetal bovine serum, antibiotics and phenol red at 37 °C in the 5% CO2 incubator with 100 µM of peptides for 2, 4 or 8 h. Phenol red was omitted from the culture media since it interferes with the lactate dehydrogenase (LDH) assay. The detergent cetyl-trimethylammonium bromide (CTAB) at 300 µM was used as positive control of tissue damages. At the end of the incubation, the explants were collected and washed three times with PBS^++ and were fixed overnight at 4 °C with PFA diluted at 4% in PBS. After that, gastric explants were washed twice with PBS and were included in an inclusion medium (TFM-EMS), in transverse position to allow cutting in the crypt-villosity axis using cryostat (Leica CM3050) (Leica Microsystems, Nanterre, France). Four sections of 5 µm thickness were obtained per explant, each section being separated by 100 µm from the next in order to cover all the tissue. Explants were then stained using hematoxylin and eosin (H&E) staining protocol. Briefly, samples were incubated for 8 min in hematoxylin (Sigma-Aldrich) and then allowed to stain by incubation with water for 2 min. Then explants were incubated for 1 min in eosin (Sigma-Aldrich) and then in water for 1 min. This was followed by incubation of explants with ethanol at concentration of 70% then 95% and finally 100% for 2 min each. After blotting excess ethanol, gastric explants were incubated for 15 min with xylene and mounted with coverslip using Eukitt mounting media (EMS, Hatfield, PA, USA). Finally, explants were left overnight to dry before examination of tissue organization under the microscope (Leitz DMRB microscope (Leïca), equipped with Leïca DFC 450C camera). Quantification of the release of LDH was also used in addition to microscopic observations to evaluate the impact of peptides on human gastric explants. Briefly, after 2, 4 or 8 h of incubation of the explants with the peptides, the supernatants of the wells were collected and stored at -80 °C before the LDH assay. The LDH activity was measured using previously described protocol with minor changes. Briefly, 50 µL of supernatants obtained from explants were mixed with 200 µL of Tris-Lactate buffer (containing Tris HCl at 86 mM, L-Lactate at 56 mM and KCl at 172 mM, pH 9.3, all from Sigma-Aldrich) and 20 µL of NAD (at 172 mM, Sigma-Aldrich) into well of 96-wells plates. Increase in OD339nm was then measured at 30 °C after 0, 1, 5, and 10 min using microplate reader (Synergy Mx, Biotek). […]

[2] = tested on: total lipids extracted from H. pylori (ATCC 43504); experiment: Lipid insertion assay (lipid monolayer, critical pressure of insertion); design: species or system biophysical; conditions: peptide 1 µM, PBS pH 7.4, from the line fits of Figure 4
Protocol: Peptide-lipid interaction was measured using reconstituted lipid monolayer at the air-water interface as previously described. Total lipids were extracted from overnight cultures of H. pylori (ATCC 43504) using Folch extraction procedure as previously described. Extracted total lipids were dried, resolubilized in chloroform:methanol (2:1, v/v) and stored at -20 °C under nitrogen. For peptide-lipid interaction assay, total lipid extract was spread using a 50 μL Hamilton's syringe at the surface of 800 μL of sterile PBS creating a lipid monolayer at the air-water interface. Lipids were added until the surface pressure reached the desired value. […] The variation of the surface pressure caused by peptide injection was then continuously monitored using a fully automated microtensiometer (μTROUGH SX, Kibron Inc., Helsinki, Finland) until reaching equilibrium (maximal surface pressure increase being usually obtained after 15-25 min). […] Variation of surface pressure was plotted as a function of initial surface pressure and the critical pressure of insertion of each peptide into H. pylori lipids was calculated as the theoretical value of initial pressure of lipid monolayer not permissive to peptide insertion, i.e., giving a variation of pressure equal to 0 mN/m.

human gastric explants [3] = experiment: Ex vivo toxicity assay, histological examination (H&E) of human gastric explants; format: cell-based; conditions: 2, 4 or 8 h; peptides 100 µM, CTAB 300 µM; H&E staining
Protocol: To further evaluate the innocuity of the peptides, ex vivo experiments were performed using human explants as previously described. Briefly, human gastric tissue samples were obtained from patients undergoing surgery at the Hospital Laveran (Marseille, France), unit of gastrointestinal surgery according to a collaborative clinical transfer project. The procedures were approved by the French ethic committee (CODECOH n° DC-2019-3402). All patients agreed for the use of their tissues for research purposes. Samples were taken from healthy patients during sleeve gastrectomy from macroscopically unaffected area as identified by the surgeons. After resection, the specimens were placed in ice-cold oxygenated sterile DMEM solution containing 1% streptomycin/penicillin solution and 50 μg/mL gentamycin and were directly transferred to the laboratory within 15 min on ice. Gastric tissues were extensively washed and maintained in ice-cold culture media containing 1% streptomycin/penicillin solution and 50 μg/mL gentamycin. […] Quantification of the release of LDH was also used in addition to microscopic observations to evaluate the impact of peptides on human gastric explants. […] The LDH activity was measured using previously described protocol with minor changes. […] Increase in OD339nm was then measured at 30 °C after 0, 1, 5, and 10 min using microplate reader (Synergy Mx, Biotek). […]

## CC[C@H](C)[C@H](NC(=O)CNC(=O)[C@H](CO)NC(=O)[C@H](CC(C)C)NC(=O)[C@@H](N)Cc1ccccc1)C(=O)N[C@H](C(=O)NCC(=O)N[C@@H](CCSC)C(=O)N[C@@H](CC(C)C)C(=O)N[C@H](C)C(=O)N[C@@H](CCCCN)C(=O)N[C@@H](CC(C)C)C(=O)N[C@@H](Cc1ccccc1)C(N)=O)C(C)C [NST1, H-Phe^1-Leu^2-Ser^3-Gly^4-Ile^5-Val^6-Gly^7-Met^8-Leu^9-D-Ala^10-Lys^11-Leu^12-Phe^13-NH2] (H-FLSGIVGML[dA]KLF-NH2)
Human gastric explants [1]; 2 h
  LDH release: 8.3%
Human gastric explants [1]; 4 h
  LDH release: 12.0%
Human gastric explants [1]; 8 h
  LDH release: 25.0%
[2]
  critical pressure of insertion (CPI): 38.65 mN/m
Human gastric explants [3]
  tissue organization by microscopic observation: tissue organization close to the negative controls
